According to PMC10001950 (International Journal of Molecular Sciences, 2023):
Where two headings read alike, the source gives them in different places.

Assays:
BoNT/A LC [1] = molecular target: T1, BoNT/A LC (Clostridium botulinum, UniProt P0DPI0); test: biochemical
BoNT/A LC WT = BoNT/A LC WT (Clostridium botulinum, UniProt P0DPI0); type: binding
[2] = tested on: BoNT/A1 cleavage of SNAP-25 in hiPSC-derived motor neurons; test: cells; type: cell-based, human
BoNT/A LC [3] = molecular target: T1, BoNT/A LC; test: biochemical; type: biochemical
BoNT/A LC [4] = molecular target: T1, BoNT/A LC; test: biochemical; settings: read-out: inhibited BoNT/A LC activity

BoNT/A LC WT, sequence (P0DPI0 2-448 limits assumed): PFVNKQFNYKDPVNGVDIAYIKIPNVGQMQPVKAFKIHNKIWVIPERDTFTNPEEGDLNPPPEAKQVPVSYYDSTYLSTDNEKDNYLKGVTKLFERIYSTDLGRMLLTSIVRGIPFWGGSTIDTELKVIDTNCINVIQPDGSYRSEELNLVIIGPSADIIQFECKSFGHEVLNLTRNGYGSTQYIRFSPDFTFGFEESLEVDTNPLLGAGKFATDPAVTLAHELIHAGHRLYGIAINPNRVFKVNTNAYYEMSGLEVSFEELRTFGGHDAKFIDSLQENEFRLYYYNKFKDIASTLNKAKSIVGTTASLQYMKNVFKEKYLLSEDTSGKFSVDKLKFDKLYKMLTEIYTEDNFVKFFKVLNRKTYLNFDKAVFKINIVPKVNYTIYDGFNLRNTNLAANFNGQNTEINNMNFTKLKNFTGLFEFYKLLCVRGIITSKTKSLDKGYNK
T1 sequence (P0DPI0 2-448 limits assumed): as above

Question: With `CS(=O)(=O)SCCCCCc1ccn2c(=O)cc(CNCc3ccc(-c4ccccc4)cc3)nc2c1O` [Compound 82, S-(6-(2-((([1,1′-biphenyl]-4-ylmethyl)amino)methyl)-9-hydroxy-4-oxo-4H-pyrido [1,2-a]pyrimidin-8-yl)pentyl) methanesulfonothioate] as the molecule, how does the Ki (BoNT/A LC [1]) read?
Answer: 1.87 ± 0.11 µM

Question: What about the kinact (BoNT/A LC [1]) of the same molecule?
Answer: 0.0024 ± 0.0002 s⁻¹

Question: What about the kinact/KI (BoNT/A LC [1]) of the same molecule?
Answer: 1260 ± 130 M⁻¹ s⁻¹

Question: What about the “covalent adduct formation by HRMS (in words)” value (BoNT/A LC WT) of the same molecule?
Answer: an increase in mass matching two covalent adducts

Question: How did the “protection of SNAP-25 (in words)” value [2] turn out when `O=C(O)c1ccc2c(c1)N(Cc1cc(=O)n3cccc(O)c3n1)CC2` [Compound 54, 1-((9-Hydroxy-4-oxo-4H-pyrido [1,2-a]pyrimidin-2-yl)methyl)indoline-6-carboxylic acid] was run?
Answer: protect against SNAP-25 cleavage

Question: And the IC50 (BoNT/A LC [3])?
Answer: 1.2 ± 0.1 µM

Question: Which inhibition at 40 µM (BoNT/A LC [4]) does the source give for `O=C(O)C1CNCCN(Cc2cc(=O)n3cccc(O)c3n2)C1` (centres unmarked) [Compound 1] here?
Answer: > 90%

Question: What about the IC50 (BoNT/A LC [3]) of the same molecule?
Answer: 7.4 ± 0.5 µM

Question: For `O=c1cc(CNCc2cccc(Cl)c2)nc2c(O)cccn12` [Compound 18, 2-(((3-Chlorobenzyl)amino)methyl)-9-hydroxy-4H-pyrido [1,2-a]pyrimidin-4-one], which “inhibition of SNAP-25 cleavage (in words)” value [2] is on record?
Answer: neither 2 nor 18 inhibited the cleavage of SNAP-25

Question: And the IC50 (BoNT/A LC [3])?
Answer: 1.7 ± 0.3 µM

Question: For `O=c1cc(CNCc2ccc(-c3ccccc3)cc2)nc2c(O)cccn12` [Compound 27, 2-((([1,1′-biphenyl]-4-ylmethyl)amino)methyl)-9-hydroxy-4H-pyrido [1,2-a]pyrimidin-4-one], which IC50 ([2]; Homo sapiens, Neuron, 0.5 h) is on record?
Answer: 13 µM

Question: And the “covalent adduct formation by HRMS (in words)” value (BoNT/A LC WT)?
Answer: Neither of the reversible compounds 2 and 27 showed any change in mass

Question: And the IC50 (BoNT/A LC [3])?
Answer: 0.3 ± 0.1 µM

Question: What about the Ki (BoNT/A LC [3]) of the same molecule?
Answer: 0.15 µM

Question: What about the “potency compared to 2 (in words)” value (BoNT/A LC [3]) of the same molecule?
Answer: significantly increased inhibitory potency

Question: Which results are given for `O=c1cc(CNCc2ccccc2)nc2c(O)cccn12` [Compound 2, 2-((Benzylamino)methyl)-9-hydroxy-4H-pyrido [1,2-a]pyrimidin-4-one]?
Answer: inhibition of SNAP-25 cleavage (in words) [2]: neither 2 nor 18 inhibited the cleavage of SNAP-25; covalent adduct formation by HRMS (in words) (BoNT/A LC WT): Neither of the reversible compounds 2 and 27 showed any change in mass; IC50 (BoNT/A LC [3]): 0.9 ± 0.2 µM; fold more potent than initial lead 1 (BoNT/A LC [3]): approximately seven-fold

Question: Which results are given for `O=c1cc(COCc2cccc(Cl)c2)nc2c(O)cccn12` [Compound 35, 2-(((3-Chlorobenzyl)oxy)methyl)-9-hydroxy-4H-pyrido [1,2-a]pyrimidin-4-one]?
Answer: inhibition of SNAP-25 cleavage (in words) [2]: did not have any apparent effect on SNAP-25 cleavage; IC50 (BoNT/A LC [3]): 7.5 ± 0.5 µM

Question: Which results are given for `O=c1cc(CN2CCc3cc(Cl)ccc32)nc2c(O)cccn12` [Compound 47, 2-((5-Chloroindolin-1-yl)methyl)-9-hydroxy-4H-pyrido [1,2-a]pyrimidin-4-one]?
Answer: protection of SNAP-25 (in words) [2]: protect against SNAP-25 cleavage; IC50 (BoNT/A LC [3]): 0.9 ± 0.6 µM

Question: What does the source list for `O=c1cc(COCc2cccc(F)c2)nc2c(O)cccn12` [Compound 32, 2-(((3-Fluorobenzyl)oxy)methyl)-9-hydroxy-4H-pyrido [1,2-a]pyrimidin-4-one]?
Answer: protection of SNAP-25 (in words) [2]: nearly complete protection of SNAP-25; IC50 (BoNT/A LC [3]): 11 ± 1 µM; less potent than 2 in the enzyme assay (BoNT/A LC [3]): ~10 fold
